Assay results from patent US7442833B2, “Triphenylethylene compounds as selective estrogen receptor modulators” (SmithKline Beecham Corporation, priority 2003, dated 2008).
In brackets after ≈: the same amount, converted by molar mass. Several values for one entry are separate records, joined by “and”; a condition that tells them apart may be missing. Equal entries are not always repeated. Structures can show the parent of a compound that is named as a salt.

Tests used:
[1] = Rat oral pharmacokinetics: bioavailability of compound 1; assay type: in vivo, female CD (Charles River Sprague Dawley) rats; details: for Bioavailability of 1 in Rat (% F): Table I; for Bioavailability of 1 in Rat: Table II
Protocol: In order to study the pharmacokinetic behavior of the prodrugs of this invention, a single oral dose of a series of prodrugs as well as compound 1 was administered to female CD (Charles River Sprague Dawley) rats. Rats received each compound by oral gavage at a dose of 10 mg/kg. […]

[2] = Equilibrium solubility in fasted state simulated intestinal fluid (SIF); assay type: physicochemical; details: fassif, thermodynamic from solid, pH = 6.8
Text: Traditionally, prodrugs have often been used to increase the bioavailability of a drug via improvement of prodrug solubility by attaching a water-soluble moiety (the “progroup”) to a poorly water soluble parent drug (D. Fleisher, Adv. Drug Del. Rev. (1996) 19, 115-130, incorporated herein by reference).

[3] = biological target: estrogen receptor subtype alpha (Homo sapiens, UniProt P03372); details: relative to estradiol; reported by Weatherman, Chem. and Biol. (2001) 8, 427-436; cited from earlier work
[4] = biological target: estrogen receptor subtype beta (Homo sapiens, UniProt Q92731); details: relative to estradiol; reported by Weatherman, Chem. and Biol. (2001) 8, 427-436; cited from earlier work
[5] = single oral gavage 10 mg/kg, suspension in aqueous 0.5% HPMC and 0.1% polysorbate 80 (Tween 80)
[6] = oral, suspension in aqueous 0.5% HPMC and 0.1% polysorbate 80 (Tween 80)

estrogen receptor subtype beta, sequence (Q92731 whole entry): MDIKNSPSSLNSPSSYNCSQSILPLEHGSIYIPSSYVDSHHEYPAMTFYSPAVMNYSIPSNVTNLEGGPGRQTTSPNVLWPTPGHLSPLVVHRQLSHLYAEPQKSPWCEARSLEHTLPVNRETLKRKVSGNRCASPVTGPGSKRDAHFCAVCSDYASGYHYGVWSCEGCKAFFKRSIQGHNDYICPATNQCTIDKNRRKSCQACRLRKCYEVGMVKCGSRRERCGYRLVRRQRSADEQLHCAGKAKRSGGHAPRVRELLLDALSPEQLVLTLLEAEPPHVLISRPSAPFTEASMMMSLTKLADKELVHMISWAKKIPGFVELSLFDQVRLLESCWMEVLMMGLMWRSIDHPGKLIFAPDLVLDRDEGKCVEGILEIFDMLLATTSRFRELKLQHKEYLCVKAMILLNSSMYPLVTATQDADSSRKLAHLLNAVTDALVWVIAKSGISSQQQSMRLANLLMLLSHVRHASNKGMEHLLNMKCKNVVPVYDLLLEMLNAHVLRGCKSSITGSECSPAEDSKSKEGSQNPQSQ
estrogen receptor subtype alpha, sequence (P03372 whole entry): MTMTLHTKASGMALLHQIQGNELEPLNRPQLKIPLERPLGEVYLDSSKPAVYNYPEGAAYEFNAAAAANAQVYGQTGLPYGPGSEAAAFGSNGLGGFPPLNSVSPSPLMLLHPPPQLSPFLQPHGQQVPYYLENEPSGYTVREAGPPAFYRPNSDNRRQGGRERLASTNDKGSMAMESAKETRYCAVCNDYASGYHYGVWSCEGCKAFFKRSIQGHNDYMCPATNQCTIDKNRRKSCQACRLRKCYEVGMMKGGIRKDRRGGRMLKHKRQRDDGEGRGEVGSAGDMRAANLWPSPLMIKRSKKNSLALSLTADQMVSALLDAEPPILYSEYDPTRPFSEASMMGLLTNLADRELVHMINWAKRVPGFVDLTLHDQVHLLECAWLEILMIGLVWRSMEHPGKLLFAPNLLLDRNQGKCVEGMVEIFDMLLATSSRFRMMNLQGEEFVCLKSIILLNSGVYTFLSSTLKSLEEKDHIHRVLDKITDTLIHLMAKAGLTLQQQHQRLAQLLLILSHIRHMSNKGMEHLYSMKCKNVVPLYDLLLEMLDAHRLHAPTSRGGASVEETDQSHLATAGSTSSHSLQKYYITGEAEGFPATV

Structure (SMILES)	melting point	Bioavailability of 1 in Rat (% F) [1, 5]	also measured
CC/C(=C(\c1ccc(/C=C/C(=O)O)cc1)c1ccc(OC(=O)CCOC)cc1)c1ccccc1 [Compound 26]	190 to 191 °C	52.4 % F	
CC/C(=C(\c1ccc(/C=C/C(=O)O)cc1)c1ccc(OC(=O)c2ccno2)cc1)c1ccccc1 [Compound 24, (2E)-3-[4-((1Z)-1-{4-[(5-Isoxazolylcarbonyl)oxy]phenyl}-2-phenyl-1-butenyl)phenyl]-2-propenoic acid]	141 to 142 °C	43.2 % F	
CC/C(=C(\c1ccc(/C=C/C(=O)O)cc1)c1ccc(OC(C)=O)cc1)c1ccccc1 [Compound 20, (2E)-3-(4-{(1Z)-1-[4-(acetyloxy)phenyl]-2-phenylbut-1-enyl}phenyl)prop-2-enoic acid]		13.5 % F	solubility thermodynamic [2]: 129 µg/mL (≈ 313 µM); Bioavailability of 1 in Rat [1, 6]: 13.5 % F
CC/C(=C(\c1ccc(/C=C/C(=O)O)cc1)c1ccc(OC(=O)CCC(F)(F)F)cc1)c1ccccc1 [Compound 27, (2E)-3-[4-((1Z)-2-phenyl-1-{4-[(4,4,4-trifluorobutanoyl)oxy]phenyl}but-1-enyl)phenyl]prop-2-enoic acid]		28.9 % F	
CC/C(=C(\c1ccc(/C=C/C(=O)O)cc1)c1ccc(OC(=O)c2ccccc2)cc1)c1ccccc1 [Compound 18, (2E)-3-(4-{(1Z)-1-[4-(benzoyloxy)phenyl]-2-phenylbut-1-enyl}phenyl)prop-2-enoic acid]		12.3 % F	
CC/C(=C(\c1ccc(/C=C/C(=O)O)cc1)c1ccc(OC(=O)c2ccco2)cc1)c1ccccc1 [Compound 22, (2E)-3-(4-{(1Z)-1-[4-(2-Furoyloxy)phenyl]-2-phenyl-1-butenyl}phenyl)-2-propenoic acid]	170 to 172 °C	16.9 % F	
CC/C(=C(/c1ccc(O)cc1)c1ccc(/C=C/C(=O)O)cc1)c1ccccc1 [Compound 1, (2E)-3-{4-[(1Z)-1-(4-Hydroxyphenyl)-2-phenylbut-1-enyl]phenyl}prop-2-enoic acid]		5.7 % F	solubility thermodynamic [2]: 23 µg/mL (≈ 62.1 µM); binding affinity to estrogen receptor subtype alpha, % that of estradiol [3]: 2%; binding affinity to estrogen receptor subtype beta, % that of estradiol [4]: 1%; Bioavailability of 1 in Rat (% F) ([1]; oral, solution in aqueous 20% hydroxypropoylcyclodextrin): 29.0 % F; Bioavailability of 1 in Rat [1, 6]: 5.7 % F
CCC(=O)Oc1ccc(/C(=C(/CC)c2ccccc2)c2ccc(/C=C/C(=O)O)cc2)cc1 [Compound 7, (2E)-3-(4-{(1Z)-2-phenyl-1-[4-(propionyloxy)phenyl]but-1-enyl}phenyl)prop-2-enoic acid]	155 to 157 °C and 158 to 160 °C	86.6 % F	solubility thermodynamic [2]: 61 µg/mL (≈ 143 µM); Bioavailability of 1 in Rat [1, 6]: 86.6 % F
CC/C(=C(\c1ccc(/C=C/C(=O)O)cc1)c1ccc(OC(=O)c2cccs2)cc1)c1ccccc1 [Compound 25, (2E)-3-[4-((1Z)-2-phenyl-1-{4-[(thien-2-ylcarbonyl)oxy]phenyl}but-1-enyl)phenyl]prop-2-enoic acid]		50.9 % F	
CC/C(=C(\c1ccc(/C=C/C(=O)O)cc1)c1ccc(OP(=O)(O)O)cc1)c1ccccc1 [Compound 35, (2E)-3-(4-{(1Z)-2-Phenyl-1-[4-(phosphonooxy)phenyl]-1-butenyl}phenyl)-2-propenoic acid]	181 to 183 °C	37.0 % F	solubility thermodynamic [2]: > 1000 µg/mL; Bioavailability of 1 in Rat [1, 6]: 37.0 % F
CC/C(=C(\c1ccc(/C=C/C(=O)O)cc1)c1ccc(OC(=O)CN(C)C)cc1)c1ccccc1 [Compound 23, (2E)-3-[4-((1Z)-1-{4-[(N,N-dimethylglycyl)oxy]phenyl}-2-phenylbut-1-enyl)phenyl]prop-2-enoic acid]		38.3 % F	solubility thermodynamic [2]: 15 µg/mL (≈ 32.9 µM); Bioavailability of 1 in Rat [1, 6]: 38.3 % F
CC/C(=C(\c1ccc(/C=C/C(=O)O)cc1)c1ccc(OC(=O)CN(C)C)cc1)c1ccccc1 (as salt: salt) [Compound 23, (2E)-3-[4-((1Z)-1-{4-[(N,N-dimethylglycyl)oxy]phenyl}-2-phenylbut-1-enyl)phenyl]prop-2-enoic acid]	206 to 208 °C		
CCCC(=O)Oc1ccc(/C(=C(/CC)c2ccccc2)c2ccc(/C=C/C(=O)O)cc2)cc1 [Compound 21, (2E)-3-(4-{(1Z)-1-[4-(butyryloxy)phenyl]-2-phenylbut-1-enyl}phenyl)prop-2-enoic acid]		18.2 % F	solubility thermodynamic [2]: 21 µg/mL (≈ 47.7 µM); Bioavailability of 1 in Rat [1, 6]: 18.2 % F
CC/C(=C(\c1ccc(/C=C/C(=O)O)cc1)c1ccc(OC(=O)c2cccs2)cc1)c1ccccc1 (as salt: salt) [Compound 25, (2E)-3-[4-((1Z)-2-phenyl-1-{4-[(thien-2-ylcarbonyl)oxy]phenyl}but-1-enyl)phenyl]prop-2-enoic acid]	175 to 176 °C		

The next lines start with results.

melting point	Bioavailability of 1 in Rat (% F) [1, 5]	Structure (SMILES)	also measured
135 to 136 °C	43.2 % F	CCOC(=O)Oc1ccc(/C(=C(/CC)c2ccccc2)c2ccc(/C=C/C(=O)O)cc2)cc1 [Compound 37, (2E)-3-[4-((1Z)-1-{4-[(Ethoxycarbonyl)oxy]phenyl}-2-phenyl-1-butenyl)phenyl]-2-propenoic acid]	
140 to 142 °C	21.9 % F	CC/C(=C(\c1ccc(/C=C/C(=O)O)cc1)c1ccc(OC(=O)OC)cc1)c1ccccc1 [Compound 40, (2E)-3-[4-((1Z)-1-{4-[(Methoxycarbonyl)oxy]phenyl}-2-phenyl-1-butenyl)phenyl]-2-propenoic acid]	
	3.3 % F	CC/C(=C(\c1ccc(/C=C/C(=O)O)cc1)c1ccc(OC(=O)C2CCCCC2)cc1)c1ccccc1 [Compound 29, (2E)-3-[4-((1Z)-1-{4-[(cyclohexylcarbonyl)oxy]phenyl}-2-phenylbut-1-enyl)phenyl]prop-2-enoic acid]	
	3.5 % F	CC/C(=C(\c1ccc(/C=C/C(=O)O)cc1)c1ccc(OC(=O)C(C)(C)C)cc1)c1ccccc1 [Compound 28, (2E)-3-[4-((1Z)-1-{4-[(2,2-dimethylpropanoyl)oxy]phenyl}-2-phenylbut-1-enyl)phenyl]prop-2-enoic acid]	
	13.9 % F	CC/C(=C(\c1ccc(/C=C/C(=O)O)cc1)c1ccc(OC(=O)CN2CCCCC2)cc1)c1ccccc1 [Compound 33, (2E)-3-[4-((1Z)-2-phenyl-1-{4-[(piperidin-1-ylacetyl)oxy]phenyl}but-1-enyl)phenyl]prop-2-enoic acid]	
162 to 163 °C		CC/C(=C(\c1ccc(/C=C/C(=O)O)cc1)c1ccc(OC(=O)CCC(F)(F)F)cc1)c1ccccc1 (as salt: salt) [Compound 27, (2E)-3-[4-((1Z)-2-phenyl-1-{4-[(4,4,4-trifluorobutanoyl)oxy]phenyl}but-1-enyl)phenyl]prop-2-enoic acid]	
	21.3 % F	CC/C(=C(\c1ccc(/C=C/C(=O)O)cc1)c1ccc(OC(=O)CN2CCOCC2)cc1)c1ccccc1 [Compound 31, (2E)-3-[4-((1Z)-1-{4-[(morpholin-4-ylacetyl)oxy]phenyl}-2-phenylbut-1-enyl)phenyl]prop-2-enoic acid]	
	13.4 % F	CC/C(=C(\c1ccc(/C=C/C(=O)O)cc1)c1ccc(OC(=O)CN2CCN(C)CC2)cc1)c1ccccc1 [Compound 34, (2E)-3-{4-[(1Z)-1-(4-{[(4-methylpiperazin-1-yl)acetyl]oxy}phenyl)-2-phenylbut-1-enyl]phenyl}prop-2-enoic acid]	
